Data: the supplement of paper PMC11061612

How the values were obtained:
[1] = system: NALM-6 (B-Lymphoblastic Leukemia); assay: combination Emax (second highest fraction inhibited in the dose matrix, 72 h); higher = more inhibition; extreme values may be limits of the assay
Summary of the method: (§1)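 Bliss excess equals the observed combination effect minus the expected value EA + EB − EA·EB, where EA and EB are the effects of each agent alone. Combination Emax is the second-highest inhibition within the matrix. Inhibition was scaled from CellTiter-Glo 2.0 luminescence, with 0 set by vehicle wells and 1 by blank wells, after 72 hours of two-drug dosing of cells plated in 1536-well plates.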

[2] = system: HCC2157 (Breast Carcinoma); assay: as above
Summary of the method: as §1

[3] = system: SW1088 (Low Grade Glioma); assay: as above
Summary of the method: as §1

[4] = system: G-292-Clone-A141B1 (Osteosarcoma); assay: as above
Summary of the method: as §1

IGR-1 (Melanoma) = assay: as above
Summary of the method: as §1

[5] = system: KARPAS-1106P (B-Cell Non-Hodgkin's Lymphoma); assay: as above
Summary of the method: as §1

NCI-H2595 (Mesothelioma) [6] = assay: as above
Summary of the method: as §1

[7] = system: DMS-273 (Small Cell Lung Carcinoma); assay: as above
Summary of the method: as §1

[8] = system: KM-H2 (Hodgkin's Lymphoma); assay: Bliss excess, mean over the matrix (fraction); higher = more synergy
Summary of the method: as §1

RH-1 (Ewing's Sarcoma) = assay: as above
Summary of the method: as §1

[9] = system: G-292-Clone-A141B1 (Osteosarcoma); assay: as above
Summary of the method: as §1

[10] = system: KATOIII (Gastric Carcinoma); assay: as above
Summary of the method: as §1

[11] = system: SW1990 (Pancreatic Carcinoma); assay: as above
Summary of the method: as §1

[12] = system: KARPAS-1106P (B-Cell Non-Hodgkin's Lymphoma); assay: as above
Summary of the method: as §1

[13] = system: SUIT-2 (Pancreatic Carcinoma); assay: as above
Summary of the method: as §1

[14] = system: NCI-H1694 (Small Cell Lung Carcinoma); assay: as above
Summary of the method: as §1

[15] = system: TGBC24TKB (Biliary Tract Carcinoma); assay: as above
Summary of the method: as §1

NCI-H2595 (Mesothelioma) [16] = assay: as above
Summary of the method: as §1

[17] = system: CTV-1 (T-Lymphoblastic Leukemia); assay: as above
Summary of the method: as §1

[18] = system: CTV-1 (T-Lymphoblastic Leukemia); assay: combination Emax (second highest fraction inhibited in the dose matrix, 72 h); higher = more inhibition; extreme values may be limits of the assay
Summary of the method: as §1

Compound	combination Emax [1]	combination Emax [2]	combination Emax [3]	combination Emax [4]	combination Emax (IGR-1 (Melanoma))	combination Emax [5]	combination Emax (NCI-H2595 (Mesothelioma) [6])	combination Emax [7]	Bliss excess [8]	Bliss excess (RH-1 (Ewing's Sarcoma))	Bliss excess [9]	Bliss excess [10]	Bliss excess [11]	Bliss excess [12]	Bliss excess [13]	Bliss excess [14]	Bliss excess [15]	Bliss excess (NCI-H2595 (Mesothelioma) [16])	Bliss excess [17]	combination Emax [18]
CN(CCO)CC[C@H](CSc1ccccc1)Nc1ccc(S(=O)(=O)NC(=O)c2ccc(N3CCC([C@@H](O)c4ccccc4-c4ccc(Cl)cc4)CC3)cc2)cc1S(=O)(=O)C(F)(F)F [AZD4320] + C=CCn1c(=O)c2cnc(Nc3ccc(N4CCN(C)CC4)cc3)nc2n1-c1cccc(C(C)(C)O)n1 [AZD1775] (first compound max 1 µM, partner max 1 µM)	1	0.969	0.391	0.559	0.934	0.963	0.141	0.708	-0.006	0.0413	0.0335	-0.043	0.0307	0.028	-0.0088	0.0834	-0.0323	-0.0113	-0.0115	
CCc1c2c(nc3ccc(O)cc13)-c1cc3c(c(=O)n1C2)COC(=O)[C@]3(O)CC [SN-38] + O=C(c1cc(Cc2n[nH]c(=O)c3ccccc23)ccc1F)N1CCN(C(=O)C2CC2)CC1 [Olaparib] (first compound max 0.3 µM, 7x7, partner max 10 µM)	0.99		0.434	0.179	0.634	0.943	0.28	0.799		0.102	-0.0332	-0.0478	0.0001	-0.0008	-0.0211		0.0421	0.0184	0.0665	1
Cc1c2c(nn1C)CSCc1cc(n(C)n1)CSc1cc(c3ccccc3c1)OCCCc1c(C(=O)O)n(C)c3c-2c(Cl)ccc13 [AZD5991] + C[C@@H](Nc1cc(F)cc(F)c1)c1cc(C(=O)N(C)C)cc2c(=O)cc(N3CCOCC3)oc12 [AZD8186] (first compound max 1 µM, 7x7, partner max 3 µM)	0.672	0.987	0.533	0.415	0.28	0.997	0.336	0.956	-0.0338		-0.013	-0.0132	-0.0948	0.0154	-0.015	0.0151	0.0027	0.0369	-0.0144	0.143
CN(C)CCCOc1ccc(-c2ccc3ncc4c(c3c2)n(C2CCOCC2)c(=O)n4C)cn1 [AZD0156] + O=C(c1cc(Cc2n[nH]c(=O)c3ccccc23)ccc1F)N1CCN(C(=O)C2CC2)CC1 [Olaparib] (first compound max 3 µM, partner max 3 µM)	0.696	0.38	0.417	0.411	0.209	0.551	0.139	0.433	0.0575	0.265	-0.0003	-0.0125	-0.0285	0.0471	0.028		0.0104	-0.0288	0.0654	0.303
COc1cc2ncnc(Nc3ccc(F)c(Cl)c3)c2cc1OCCCN1CCOCC1 [Gefitinib] + CC(C)n1c(=O)n(C)c2cnc3cc(F)c(-c4ccc(OCCCN5CCCCC5)nc4)cc3c21 [AZD1390] (first compound max 10 µM, 7x7, partner max 0.3 µM)	0.176	0.723	0.108	0.0339	0.635	0.267	0.129	0.325	-0.0312	-0.0399	-0.0548	-0.0113	-0.0441	-0.0393	-0.0527		-0.0379	-0.0596	-0.0468	0.785
C=CCn1c(=O)c2cnc(Nc3ccc(N4CCN(C)CC4)cc3)nc2n1-c1cccc(C(C)(C)O)n1 [AZD1775] + C1CN(CCC1(C(=O)N[C@@H](CCO)C2=CC=C(C=C2)Cl)N)C3=NC=NC4=C3C=CN4 [Capivasertib] (first compound max 3 µM, partner max 3 µM)	0.985		0.723	0.492	0.482	0.909	0.281	0.896	0.0333	-0.0509	-0.0313	-0.0773	-0.0209	0.0135	-0.017		-0.034	-0.0787	0.0399	0.983
Cc1c2c(nn1C)CSCc1cc(n(C)n1)CSc1cc(c3ccccc3c1)OCCCc1c(C(=O)O)n(C)c3c-2c(Cl)ccc13 [AZD5991] + Cc1cc2ncnn2cc1Nc1ncc2c(n1)n(C1CCOCC1)c(=O)n2C [AZD7648] (first compound max 1 µM, 7x7, partner max 10 µM)	0.471	0.984	0.423	0.267	0.237	0.939	0.291	0.988	0.0203	-0.0036	-0.0274	-0.0305	-0.0398	-0.0016		-0.0059	-0.0102	0.0034	-0.0169	0.29
